According to PMC7662321, “Andrographolide and Its 14-Aryloxy Analogues Inhibit Zika and Dengue Virus Infection” (Molecules, 2020):
Read-outs that look alike come from different tables or passages of the source.

Legend:
[1] = tested on: DENV 2; test: DENV 2 viral production in HEK293T/17 cells by standard plaque assay; type: cell-based, dengue virus; settings: for Selective Index (SI): DENV, CC50 and EC50 in HEK293T/17 cells; for EC50: Dengue virus, read-out: EC50 against DENV 2 infection; for DENV 2 viral production, concentration dependence: HEK293T/17, MOI 5, 1 to 100 µM
Description: The effects of the compounds on DENV-2 infection were evaluated using HEK293T/17 as host cells at MOI of 5. The cells were infected with DENV 2 for 2 h and then the cells were incubated with the compounds at non-cytotoxic (or morphology altering) concentrations of 10 and 25 μM of ZAD-1 and ZAD-3, or 25 and 50 μM of ZAD-2, or 50 and 75 μM of andrographolide or 0.1% DMSO vehicle control. After 24 h of treatment, cells were harvested for determination of the percentage of infection by flow cytometry, while the culture supernatants were collected to determine the viral production.
(§1) Thus, the EC50 values of ZAD-1 and andrographolide were determined against ZIKV and DENV 2. For ZIKV, A549 cells were infected with ZIKV at MOI 5 and after 2 h of infection, the cells were incubated with ZAD-1 or andrographolide at a range of concentrations (1 to 100 µM) for 24 h, after which the supernatants were collected for determination of EC50 values by standard plaque assay. Both ZAD-1 and andrographolide reduced viral production in a dose-dependent manner (Figure 4A). […] For DENV 2, HEK293T/17 cells were infected with DENV 2 at MOI 5 for 2 h and followed by incubation with ZAD-1 or andrographolide at a range of concentrations (1 to 100 µM) for 24 h. […] The EC50 value for andrographolide in DENV infection is consistent with our previous study undertaken in HepG2 and HeLa cells with the same virus.
(§2) DENV 2 (strain 16681) and ZIKV (strain SV0010/15) virus stocks were propagated in C6/36 cells previously described, and virus titers were determined by standard plaque assay as described previously using Vero cells for ZIKV and LLC-MK2 cells for DENV.
(§3) HEK293T/17 or A549 cells were cultured in six-well plates under standard conditions until the cells reached 80% confluence. HEK293T/17 cells were infected with DENV 2, while A549 cells were infected with ZIKV Thai strain at MOI 5 for 2 h at 37 °C and 5% CO2 in culture medium without FBS. Mock infection was undertaken in parallel. After the infection period, the medium was removed and replaced with complete medium (including FBS) containing 0.1% DMSO (no treatment control) or the appropriate concentration of each compound and cells were again incubated under standard conditions. At 24 h post-treatment, cells were harvested for determination of effects of compounds on percentage of infection and supernatant was collected for determination of viral productivity. All experiments were undertaken independently in triplicate with duplicate plaque assay.

[2] = MTT cytotoxicity assay in A549 cells; type: cell-based; settings: human, A549 cells (human lung carcinoma), 24 h post-treatment
Description: Cytotoxicity of each compound towards cells for four selected cell lines in the range of 1 to 500 µM was evaluated using the MTT (3-(4,5-dimethylthiazol-2-yl)-2,5-diphenyltetrazolium bromide) assay at 24 h post-treatment, in parallel with control and vehicle-treated cells (0.1% dimethyl sulfoxide (DMSO)). The 50% cytotoxic concentration (CC50) values calculated from the dose-response curve (Supplementary Figures S2–S5) are shown in Table 1. Overall, a range of cytotoxicities were seen from the four compounds across the […]. The most cytotoxic combination was ZAD-1 and BHK-21 cells, while the least cytotoxic combination was andrographolide and BHK-21 cells (Table 1).
A549 cells were cultured in ninety-six-well tissue culture plates under standard conditions until the cells reached 90% confluence. The cell culture medium was removed and then cells were incubated with various concentrations of andrographolide (1–100 μM) diluted in complete medium with FBS prior to being cultured for 24 h under standard conditions before analysis using either the Vybrant MTT Cell proliferation assay kit (V13154, Invitrogen) or the alamarBlue (Thermo Fischer Scientific, Waltham, MA, USA) assay kit according to the manufacturers recommendations. Values were determined from 8 (MTT assay) or 3 (alamarBlue) independent replicates. Negative controls (only media and media with 0.1% DMSO) and positive controls (5% DMSO) were included. To determine cell number, cell cultures were trypsinized by the addition of 0.25% Trypsin/0.1% ethylelediaminetetraacetic acid (EDTA) for 3 min and then cell suspensions were diluted with 0.4% trypan blue solution. Cells were counted using a hemocytometer. Cell morphology was additionally observed under an inverted microscope after 24 h treatment with various concentrations of each compound.
Figu re S4. Cytotoxicity of ZAD -1 (A), ZA D-2 (B), ZA D-3 (C), and andro grapholide (D) to A549 (human lung carcinoma) cells. A549 cells were incubated with various concentrations of each compound for 24 hrs followed by MTT cell viability assay. The experiment was undertaken independently in 4 replicates.
DMSO at the same concentrations was used as a control. 10% ethanol, PBS, and milli- Q water were used as a positive control of cell death. The bars show mean ± SD. […]

[3] = tested on: ZIKV; test: ZIKV viral production in A549 cells by standard plaque assay; type: cell-based, Zika virus; settings: for ZIKV viral production, concentration dependence: A549, MOI 5, 1 to 100 µM; for Selective Index (SI): ZIKV, CC50 and EC50 in A549 cells; for EC50: Zika virus, A549 cells, MOI 5, 24 h treatment post-infection, plaque assay, read-out: EC50 against ZIKV infection
Description: To confirm the effects of andrographolide and the andrographolide analogues on ZIKV infection, A549 cells were infected with ZIKV at MOI of 5 for 2 h, and subsequently treated with the compounds at concentrations of 10 and 25 μM or with vehicle for 24 h. The cells were harvested for determination of the percentage of infection by flow cytometry, while the supernatants were collected for determination of viral titer by standard plaque assay.
as §1, §2, §3

| SMILES | Selective Index (SI) [1] | EC50 ([1]; HEK293T/17, 24 h) | DENV 2 viral production, concentration dependence ([1]; 24 h) | CC50 at 24 h [2] | ZIKV viral production, concentration dependence ([3]; 24 h) | Selective Index (SI) [3] | EC50 [3] | EC50 ([1]; HEK293T/17 cells, MOI 5, 24 h treatment post-infection, plaque assay) | DENV 2 viral production, comparison among compounds ([1]; HEK293T/17, MOI 5, 25 µM, 24 h) | inhibitory effect on ZIKV infection, comparison among compounds ([3]; A549, MOI 5, 25 µM, 24 h) |
| --- | --- | --- | --- | --- | --- | --- | --- | --- | --- | --- |
| C=C1CC[C@@H]2[C@](C)(CO)[C@H](O)CC[C@@]2(C)[C@@H]1C/C=C1/C(=O)OC[C@H]1O [Andrographolide] | 8.4 | 35.2 ± 2.5 µM | dose-dependent reductions | 211 ± 32 µM | dose-dependent | 6.6 | 31.8 ± 3.5 µM |  |  |  |
| C=C1CC[C@@H]2[C@]3(C)COC(C)(C)O[C@@H]3CC[C@@]2(C)[C@@H]1C/C=C1/C(=O)OC[C@@H]1Oc1c(Cl)cc(Cl)c2ccc(C)nc12 [ZAD-1] | 6.6 |  | dose-dependent reductions | 273 ± 22 µM | dose-dependent | 9.8 | 27.9 ± 1.7 µM | 22.6 ± 1.8 µM | greatest reduction | greatest inhibitory effect |
